# In US9512144B2, “Imidazothiazole sufonamides as nematicides” (BAYER CROPSCIENCE AKTIENGESELLSCHAFT, priority 2013, dated 2016):
# How the values were obtained:
# Assay type in all cases: in vivo
# Meloidogyne incognita [1] = assay: Meloidogyne incognita test (MELGIN): sand, salad seeds, gall formation after 14 days; settings: application rate 20 ppm, salad seedlings in sand
# Summary of the method: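 Compound in acetone was diluted with water and added to sand-filled vessels together with M. incognita eggs and larvae and salad seeds. After 14 days, root galls were scored against untreated controls: 100% means no galls, 0% means galling equal to the control.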
# Meloidogyne incognita [2] = assay: Meloidogyne incognita spray test (MELGIN): leaves of salad and tomato plants sprayed, gall formation 24 days after spraying
# Procedure: Solvent: 7 parts by weight of dimethylformamide Emulsifier: alkylaryl polyglycol ether To produce a suitable preparation of active compound, 1 part by weight of active compound is mixed with the stated amount of solvent and is diluted with water, containing an emulsifier concentration of 1000 ppm, to the desired concentration. Further test concentrations are prepared by dilution with emulsifier containing water. Ammonium sulfate and rape oil methyl ester (RME) in a dosage of 1000 ppm are added to the desired concentration. Salad and tomato plants are treated by being sprayed on the leaves with the preparation of the active compound of the desired concentration, the soil surface is covered by a protection film. 3 days after spraying, a suspension containing eggs and larvae of the southern root-knot nematode (Meloidogyne incognita) is added on the soil surface. Galls develop on the roots. 24 days after spraying, the nematicidal activity is determined on the basis of the percentage of gall formation. 100% means no galls were found; 0% means the number of galls found on the roots of the treated plants was equal to that in untreated control plants. […] Test plant: Tomato, Lycopersicon esculentum Test plant: Salad, Lactuca sativa
# Meloidogyne incognita [3] = assay: Meloidogyne incognita test: compound solution poured into pots with soil (loamy sand), salad seeds, gall formation after 21 days; settings: application rate 2 ppm, salad in soil
# Procedure: Solvent: 7 parts by weight of dimethylformamide Emulsifier: 2.5 parts by weight of alkylarylpolyglycolether To produce a suitable preparation of active compound, 1 part by weight of active compound is mixed with the stated amount of solvent and emulsifier and is diluted with water to the desired concentration. In the calculation of the concentration the soil volume has to be included. […] Further test concentrations are prepared by dilution with water. The compound solution is poured into pots filled with soil (loamy sand). A suspension containing eggs and larvae of the southern root-knot nematode (Meloidogyne incognita) is added, salad seeds are spread on the soil surface and covered with quartz sand. The salad seeds germinate and the seedlings grow. Galls develop on the roots. After 21 days the nematicidal activity is determined on the basis of the percentage of gall formation. 100% means no galls were found; 0% means the number of galls found on the roots of the treated plants was equal to that in untreated control plants.
# [4] = test plant Salad, Lactuca sativa, leaf spray 100 ppm
# [5] = test plant Salad, Lactuca sativa, leaf spray 1000 ppm
# [6] = test plant Salad, Lactuca sativa, leaf spray 2500 ppm
# [7] = test plant Tomato, Lycopersicon esculentum, leaf spray 100 ppm
# [8] = test plant Tomato, Lycopersicon esculentum, leaf spray 1000 ppm
# [9] = test plant Tomato, Lycopersicon esculentum, leaf spray 2500 ppm
SMILES,nematicidal activity on the basis of the percentage of gall formation (100% = no galls) (Meloidogyne incognita [1]),nematicidal activity on the basis of the percentage of gall formation (100% = no galls) (Meloidogyne incognita [2]; [4]),nematicidal activity on the basis of the percentage of gall formation (100% = no galls) (Meloidogyne incognita [2]; [5]),nematicidal activity on the basis of the percentage of gall formation (100% = no galls) (Meloidogyne incognita [2]; [6]),nematicidal activity on the basis of the percentage of gall formation (100% = no galls) (Meloidogyne incognita [2]; [7]),nematicidal activity on the basis of the percentage of gall formation (100% = no galls) (Meloidogyne incognita [2]; [8]),nematicidal activity on the basis of the percentage of gall formation (100% = no galls) (Meloidogyne incognita [2]; [9]),nematicidal activity on the basis of the percentage of gall formation (100% = no galls) (Meloidogyne incognita [3])
COc1ccc(Cl)c(S(=O)(=O)NC(=O)c2cn3c(C)c(C(F)(F)F)sc3n2)c1 [Example I-1-159],100%,25%,60%,95%,0%,75%,95%,95%
Cc1c(C(F)(F)F)sc2nc(C(=O)NS(=O)(=O)c3c(Cl)cccc3Cl)cn12 [Example I-1-158],90%,15%,75%,80%,0%,0%,50%,98%
